Results reported in patent US20050112573A1, “Method of detecting toxic substance” (priority 2001, published 2005).

Tested on: yeast genes (level of expressed mRNA)
Experiment: DNA chip analysis of expressed mRNA of yeast genes after 2 h culture with a toxic chemical substance
Type: cell-based, Saccharomyces cerevisiae S288C
Experimental: Yeast (Saccharomyces cerevtisiae S288C (α SUC2mal mel gap2 CUP1)) were cultured at 25° C. on YPD medium (yeast extract 1%, polypepton 2%, glucose 2%). One of toxic chemical substances was added to the cell at logarithmic growth phase, and the cell was further cultured for two hours. Cell was cultured without any chemical substance in the same condition, and was used as control. Concentrations of the chemical substances were defined to inhibit the growth of the yeast but not lead to death.
After the completion of cultivation, the culture was centrifuged to collect the cells. To the cells, sodium acetate buffer (50 mM sodium acetate, 10 mM EDTA, 1% SDS) was added, and the mixture was shaken at 65° C. for five minutes, followed by returning to room temperature, and obtaining the supernatant, which procedure was repeated two times. To the supernatant, ½ amount of a solution of phenol/chloroform was added, and the mixture was centrifuged to give a supernatant, which was added with an equal amount of chloroform, and the mixture was centrifuged to give a supernatant. To the supernatant, an equal amount of isopropanol containing 0.3 M sodium acetate was added, and the mixture was allowed to stand at room temperature for 30 minutes, after which the mixture was centrifuged to give a sediment of the whole RNAs. Seventy % ethanol was added to the sediment, and the mixture was again centrifuged to give a sediment, which was then dried and dissolved in water. mRNA was isolated from the whole RNAs as followings. In view of the fact that a poly A chain is attached to the 3′ terminus of mRNA, a polynucleotide having a poly T structure which was immobilized on the surface of latex beads was used to trap the mRNA, and then the mRNA was washed and eluted with spine column (Oligotex-dT30<Super>mRNA Purification Kit, Takara). Reverse transcription of the mRNA was conducted with a reverse transcriptase (Super Script II Reverse Transcriptase; catalogue No. 18064-014, GibcoBRL) using fluorescence-labeled nucleotides to give cDNAs that were introduced with Cy3-dUTP or Cy5-dUTP during the reverse transcription.
The labeled cDNAs were dissolved in TE buffer (10 mM Tris-HCl/1 mM EDTA, pH8.0), and the solution was dropped on the DNA chip containing the whole genes of yeast (DNA Chip Research Inc. Japan) so that the cDNAs were hybridized on the DNA chip at 65° C. for over 12 hours. The fluoresces intensity of the DNA chip was read with a scanner, and the ratio relative to the fluorescence intensity resulting from the absence of chemical substance was estimated as the following, which is shown in Tables 1 to 9: [formula]
In the Tables, “Intensity” indicated in the rightmost column is a value of the level of expressed mRNA of each gene in control cells as divided by the average level of the expressions of the whole genes.

## CCCCCCCCCCCCOS(=O)(=O)[O-].[Na+] [(18), sodium lauryl sulfate]
Gene YDR133C
  The level of expressed mRNA in the presence of chemical substance/absence: YDR133C: 0.9
Gene YDR140W
  The level of expressed mRNA in the presence of chemical substance/absence: YDR140W: 1.3
Gene YDR221W
  The level of expressed mRNA in the presence of chemical substance/absence: YDR221W: 1.0
Gene YDR250C
  The level of expressed mRNA in the presence of chemical substance/absence: YDR250C: 0.9
Gene YDR271C
  The level of expressed mRNA in the presence of chemical substance/absence: YDR271C: 0.9
Gene YDR278C
  The level of expressed mRNA in the presence of chemical substance/absence: YDR278C: 0.8
Gene YDR281C
  The level of expressed mRNA in the presence of chemical substance/absence: YDR281C: 1.2
Gene YDR316W
  The level of expressed mRNA in the presence of chemical substance/absence: YDR316W: 0.5
Gene YDR338C
  The level of expressed mRNA in the presence of chemical substance/absence: YDR338C: 1.0
Gene YDR366C
  The level of expressed mRNA in the presence of chemical substance/absence: YDR366C: 0.9
Gene YDR380W
  level of expressed mRNA in the presence of chemical substance/in its absence: 0.8
Gene YDR410C
  level of expressed mRNA in the presence of chemical substance/in its absence: 1.0
Gene YDR421W
  The level of expressed mRNA in the presence of chemical substance/absence: YDR421W: 0.8
Gene YDR425W
  The level of expressed mRNA in the presence of chemical substance/absence: YDR425W: 1.2
Gene YDR485C
  The level of expressed mRNA in the presence of chemical substance/absence: YDR485C: 1.0
Gene YDR487C
  level of expressed mRNA in the presence of chemical substance/in its absence: 1.9
Gene YDR502C
  level of expressed mRNA in the presence of chemical substance/in its absence: 0.9
Gene YDR504C
  The level of expressed mRNA in the presence of chemical substance/absence: YDR504C: 1.2
Gene YEL011W
  level of expressed mRNA in the presence of chemical substance/in its absence: 2.5
Gene YEL020C
  level of expressed mRNA in the presence of chemical substance/in its absence: 1.3
Gene YEL044W
  The level of expressed mRNA in the presence of chemical substance/absence: YEL044W: 1.0
Gene YER026C
  level of expressed mRNA in the presence of chemical substance/in its absence: 3.2
Gene YER069W
  level of expressed mRNA in the presence of chemical substance/in its absence: 0.9
Gene YER092W
  The level of expressed mRNA in the presence of chemical substance/absence: YER092W: 1.7
Gene YER182W
  The level of expressed mRNA in the presence of chemical substance/absence: YER182W: 1.2
Gene YFL042C
  The level of expressed mRNA in the presence of chemical substance/absence: YFL042C: 1.2
Gene YFR015C
  level of expressed mRNA in the presence of chemical substance/in its absence: 1.2
Gene YFR026C
  The level of expressed mRNA in the presence of chemical substance/absence: YFR026C: 1.1
Gene YFR056C
  The level of expressed mRNA in the presence of chemical substance/absence: YFR056C: 0.8
Gene YGL001C
  level of expressed mRNA in the presence of chemical substance/in its absence: 2.1
Gene YGL022W
  level of expressed mRNA in the presence of chemical substance/in its absence: 0.7
Gene YGL039W
  level of expressed mRNA in the presence of chemical substance/in its absence: 1.0
Gene YGL041C
  The level of expressed mRNA in the presence of chemical substance/absence: YGL041C: 1.1
Gene YGL045W
  The level of expressed mRNA in the presence of chemical substance/absence: YGL045W: 1.2
Gene YGL057C
  The level of expressed mRNA in the presence of chemical substance/absence: YGL057C: 1.1
Gene YGL088W
  The level of expressed mRNA in the presence of chemical substance/absence: YGL088W: 0.7
Gene YGL104C
  level of expressed mRNA in the presence of chemical substance/in its absence: 1.3
Gene YGL126W
  level of expressed mRNA in the presence of chemical substance/in its absence: 0.9
Gene YGL134W
  level of expressed mRNA in the presence of chemical substance/in its absence: 1.3
Gene YGL154C
  level of expressed mRNA in the presence of chemical substance/in its absence: 1.1
Gene YGL183C
  The level of expressed mRNA in the presence of chemical substance/absence: YGL183C: 1.0
Gene YGL209W
  level of expressed mRNA in the presence of chemical substance/in its absence: 1.5
Gene YGL223C
  The level of expressed mRNA in the presence of chemical substance/absence: YGL223C: 1.0
Gene YGL253W
  level of expressed mRNA in the presence of chemical substance/in its absence: 0.8
Gene YGR038W
  The level of expressed mRNA in the presence of chemical substance/absence: YGR038W: 1.1
Gene YGR060W
  level of expressed mRNA in the presence of chemical substance/in its absence: 1.6
Gene YGR139W
  The level of expressed mRNA in the presence of chemical substance/absence: YGR139W: 0.8
Gene YGR156W
  The level of expressed mRNA in the presence of chemical substance/absence: YGR156W: 0.8
Gene YGR198W
  The level of expressed mRNA in the presence of chemical substance/absence: YGR198W: 1.0
Gene YGR210C
  The level of expressed mRNA in the presence of chemical substance/absence: YGR210C: 0.7
Gene YGR211W
  The level of expressed mRNA in the presence of chemical substance/absence: YGR211W: 0.5
Gene YGR237C
  The level of expressed mRNA in the presence of chemical substance/absence: YGR237C: 1.0
Gene YGR243W
  The level of expressed mRNA in the presence of chemical substance/absence: YGR243W: 4.4
Gene YGR250C
  The level of expressed mRNA in the presence of chemical substance/absence: YGR250C: 2.1
Gene YGR266W
  The level of expressed mRNA in the presence of chemical substance/absence: YGR266W: 1.0
Gene YGR277C
  The level of expressed mRNA in the presence of chemical substance/absence: YGR277C: 1.1
Gene YGR282C
  level of expressed mRNA in the presence of chemical substance/in its absence: 1.5
